Experimental data as given in publication PMC3961306, “Comparison of the Cancer Gene Targeting and Biochemical Selectivities of All Targeted Kinase Inhibitors Approved for Clinical Use” (PLoS ONE, 2014).
Where two headings read alike, the source gives them in different places. Blank lines part the entries; values can stand above or below the molecule they belong to.

Experiments:
[1] = tested on: forty-four human cancer cell lines; assay: Cell proliferation assay (ATPlite, 72 hours) in the 44 cell line Oncolines panel; type: cell-based; settings: Homo sapiens
[2] = tested on: mutant versus wild-type cell lines of the 44 cell line panel; assay: Anova analysis of cell panel IC50s against cancer gene changes; standardized mean difference (targetedness)
[3] = 769-P, cell line 769-P, read-out: cell panel IC50, 769-P
[4] = 786-0, cell line 786-0, read-out: cell panel IC50, 786-0
[5] = A 172, read-out: cell panel IC50, A-172, cell line A-172
[6] = A204, cell line A-204, read-out: cell panel IC50, A-204
[7] = A498, read-out: cell panel IC50, A-498, cell line A-498
[8] = A549, read-out: cell panel IC50, A-549, cell line A-549
[9] = A-375, cell line A375, read-out: cell panel IC50, A375
[10] = A-427, read-out: cell panel IC50, A-427, cell line A-427
[11] = ACHN, cell line ACHN, read-out: cell panel IC50, ACHN
[12] = AN3-CA, cell line AN3 CA, read-out: cell panel IC50, AN3 CA
[13] = AU565, read-out: cell panel IC50, AU-565, cell line AU-565
[14] = BT-20, cell line BT-20, read-out: cell panel IC50, BT-20
[15] = BT-549, read-out: cell panel IC50, BT-549, cell line BT-549
[16] = BXPC-3, cell line BxPC-3, read-out: cell panel IC50, BxPC-3
[17] = C-33-A, cell line C-33 A, read-out: cell panel IC50, C-33 A
[18] = CAL-27, cell line CAL 27, read-out: cell panel IC50, CAL 27
[19] = CCRF-CEM, cell line CCRF-CEM, read-out: cell panel IC50, CCRF-CEM
[20] = DLD-1, cell line DLD-1, read-out: cell panel IC50, DLD-1
[21] = FaDu, cell line FaDu, read-out: cell panel IC50, FaDu
[22] = HCT-15, cell line HCT-15, read-out: cell panel IC50, HCT-15
[23] = HCT-116, read-out: cell panel IC50, HCT-116, cell line HCT-116
[24] = Hs-578T, cell line Hs 578T, read-out: cell panel IC50, Hs 578T
[25] = Jurkat E6.1, cell line Jurkat E6.1, read-out: cell panel IC50, Jurkat E6.1
[26] = K562, read-out: cell panel IC50, K-562, cell line K-562
[27] = LS174T, read-out: cell panel IC50, LS 174T, cell line LS 174T
[28] = LoVo, cell line LoVo, read-out: cell panel IC50, LoVo
[29] = MG-63, cell line MG-63, read-out: cell panel IC50, MG-63
[30] = MOLT-4, cell line MOLT-4, read-out: cell panel IC50, MOLT-4
[31] = MeWo, cell line MeWo, read-out: cell panel IC50, MeWo
[32] = NCI-H82, cell line NCI-H82, read-out: cell panel IC50, NCI-H82
[33] = NCI-H460, cell line NCI-H460, read-out: cell panel IC50, NCI-H460
[34] = OVCAR-3, cell line OVCAR-3, read-out: cell panel IC50, OVCAR-3
[35] = RPMI-7951, cell line RPMI-7951, read-out: cell panel IC50, RPMI-7951
[36] = SHP77, cell line SHP-77, read-out: cell panel IC50, SHP-77
[37] = SK-N-AS, cell line SK-N-AS, read-out: cell panel IC50, SK-N-AS
[38] = SW48, cell line SW48, read-out: cell panel IC50, SW48
[39] = SW480, cell line SW480, read-out: cell panel IC50, SW480
[40] = SW-620, cell line SW620, read-out: cell panel IC50, SW620
[41] = U2OS, cell line U-2 OS, read-out: cell panel IC50, U-2 OS
[42] = U-87 MG, 72 h, U-87 MG cell line, ATPlite, 72 hours, read-out: IC50 in cell proliferation assay (table S5 cellpanel data)
[43] = cell line J82, read-out: cell panel IC50, J82
[44] = cell line PA-1, read-out: cell panel IC50, PA-1
[45] = cell line SJCRH30, read-out: cell panel IC50, SJCRH30
[46] = cell line SR, read-out: cell panel IC50, SR

IC50 [1, 3]: 815 nM
IC50 [1, 4]: 3680 nM
IC50 [1, 5]: 11100 nM
IC50 [1, 6]: 653 nM
IC50 [1, 7]: 1010 nM
IC50 [1, 8]: 859 nM
IC50 [1, 9]: 397 nM
IC50 [1, 10]: 347 nM
IC50 [1, 11]: 1170 nM
IC50 [1, 12]: 3180 nM
IC50 [1, 13]: 993 nM
IC50 [1, 14]: 7380 nM
IC50 [1, 15]: 1180 nM
IC50 [1, 16]: 10700 nM
IC50 [1, 17]: 376 nM
IC50 [1, 18]: 525 nM
IC50 [1, 19]: 106 nM
IC50 [1, 20]: 5640 nM
IC50 [1, 21]: 1350 nM
IC50 [1, 22]: 1560 nM
IC50 [1, 23]: 658 nM
IC50 [1, 24]: 4000 nM
IC50 [1, 25]: 240 nM
IC50 [1, 26]: 1140 nM
IC50 [1, 27]: 219 nM
IC50 [1, 28]: 739 nM
IC50 [1, 29]: 2100 nM
IC50 [1, 30]: 57 nM
IC50 [1, 31]: 5240 nM
IC50 [1, 32]: 1010 nM
IC50 [1, 33]: 331 nM
IC50 [1, 34]: 22400 nM
IC50 [1, 35]: 701 nM
IC50 [1, 36]: > 31600 nM
IC50 [1, 37]: 1370 nM
IC50 [1, 38]: 205 nM
IC50 [1, 39]: 4650 nM
IC50 [1, 40]: 4180 nM
IC50 [1, 41]: 3330 nM
IC50 [1, 42]: 29400 nM
IC50 [1, 43]: 4940 nM
IC50 [1, 44]: 83 nM
IC50 [1, 45]: 1030 nM
IC50 [1, 46]: 47 nM
Structure (SMILES): COc1cc([C@@H]2c3cc4c(cc3[C@@H](O[C@@H]3O[C@@H]5CO[C@@H](C)O[C@H]5[C@H](O)[C@H]3O)[C@H]3COC(=O)[C@H]23)OCO4)cc(OC)c1O [etoposide]

Structure (SMILES): Cc1ccc(NC(=O)c2ccc(CN3CCN(C)CC3)cc2)cc1Nc1nccc(-c2cccnc2)n1 [imatinib]
targetedness (standardized logIC50 difference) ([2]; ABL1 oncogene targeting, Figure 5D): -9.84

Structure (SMILES): Cn1cnc2c(F)c(Nc3ccc(Br)cc3Cl)c(C(=O)NOCCO)cc21 [selumetinib]
Potency shift in cell lines expressing mutant β-catenin (CTNNB1) versus wild-type ([2]; CTNNB1 mutant versus wild-type, average): more than tenfold

Structure (SMILES): CNC(=O)c1cc(Oc2ccc(NC(=O)Nc3ccc(Cl)c(C(F)(F)F)c3)cc2)ccn1 [sorafenib]
IC50 ([1]; 4-4 cell, read-out: cell panel IC50, J82): 26500 nM
IC50 ([1]; 4-4 cell, read-out: cell panel IC50, PA-1): 11700 nM
IC50 ([1]; 4-4 cell, read-out: cell panel IC50, SJCRH30): 12100 nM
IC50 ([1]; 4-4 cell, read-out: cell panel IC50, SR): 11800 nM
IC50 ([1]; 769-P, read-out: cell panel IC50, 769-P): 12700 nM
IC50 ([1]; 786-0, read-out: cell panel IC50, 786-0): 11700 nM
IC50 ([1]; A 172, read-out: cell panel IC50, A-172): 22600 nM
IC50 ([1]; A204, read-out: cell panel IC50, A-204): 1620 nM
IC50 ([1]; A498, read-out: cell panel IC50, A-498): 18700 nM
IC50 ([1]; A549, read-out: cell panel IC50, A-549): 21200 nM
IC50 ([1]; A-375, read-out: cell panel IC50, A375): 28700 nM
IC50 ([1]; A-427, read-out: cell panel IC50, A-427): 7780 nM
IC50 ([1]; ACHN, read-out: cell panel IC50, ACHN): 17500 nM
IC50 ([1]; AN3-CA, read-out: cell panel IC50, AN3 CA): 9970 nM
IC50 ([1]; AU565, read-out: cell panel IC50, AU-565): 10400 nM
IC50 ([1]; BT-20, read-out: cell panel IC50, BT-20): 25000 nM
IC50 ([1]; BT-549, read-out: cell panel IC50, BT-549): 18200 nM
IC50 ([1]; BXPC-3, read-out: cell panel IC50, BxPC-3): 11100 nM
IC50 ([1]; C-33-A, read-out: cell panel IC50, C-33 A): 15900 nM
IC50 ([1]; CAL-27, read-out: cell panel IC50, CAL 27): 14000 nM
IC50 ([1]; CCRF-CEM, read-out: cell panel IC50, CCRF-CEM): 13000 nM
IC50 ([1]; DLD-1, read-out: cell panel IC50, DLD-1): 10500 nM
IC50 ([1]; FaDu, read-out: cell panel IC50, FaDu): 16200 nM
IC50 ([1]; HCT-15, read-out: cell panel IC50, HCT-15): 9900 nM
IC50 ([1]; HCT-116, read-out: cell panel IC50, HCT-116): 11900 nM
IC50 ([1]; Hs-578T, read-out: cell panel IC50, Hs 578T): 21600 nM
IC50 ([1]; Jurkat E6.1, read-out: cell panel IC50, Jurkat E6.1): 7940 nM
IC50 ([1]; K562, read-out: cell panel IC50, K-562): 9460 nM
IC50 ([1]; LS174T, read-out: cell panel IC50, LS 174T): 11700 nM
IC50 ([1]; LoVo, read-out: cell panel IC50, LoVo): 11300 nM
IC50 ([1]; MG-63, read-out: cell panel IC50, MG-63): 27400 nM
IC50 ([1]; MOLT-4, read-out: cell panel IC50, MOLT-4): 10500 nM
IC50 ([1]; MeWo, read-out: cell panel IC50, MeWo): 20900 nM
IC50 ([1]; NCI-H82, read-out: cell panel IC50, NCI-H82): 11300 nM
IC50 ([1]; NCI-H460, read-out: cell panel IC50, NCI-H460): 14100 nM
IC50 ([1]; OVCAR-3, read-out: cell panel IC50, OVCAR-3): > 31600 nM
IC50 ([1]; RPMI-7951, read-out: cell panel IC50, RPMI-7951): 20400 nM
IC50 ([1]; SHP77, read-out: cell panel IC50, SHP-77): 13600 nM
IC50 ([1]; SK-N-AS, read-out: cell panel IC50, SK-N-AS): 28900 nM
IC50 ([1]; SW48, read-out: cell panel IC50, SW48): 8300 nM
IC50 ([1]; SW480, read-out: cell panel IC50, SW480): 5330 nM
IC50 ([1]; SW-620, read-out: cell panel IC50, SW620): 5950 nM
IC50 ([1]; U2OS, read-out: cell panel IC50, U-2 OS): 15800 nM
IC50 ([1]; U-87 MG, 72 h, read-out: IC50 in cell proliferation assay (table S5 cellpanel data)): 28300 nM

IC50 [1, 3]: 13 nM
IC50 [1, 4]: 42 nM
IC50 [1, 5]: 5.3 nM
IC50 [1, 6]: 13 nM
IC50 [1, 7]: 20 nM
IC50 [1, 8]: 24 nM
IC50 [1, 9]: 5.46 nM
IC50 [1, 10]: 2.27 nM
IC50 [1, 11]: 54 nM
IC50 [1, 12]: 1.29 nM
IC50 [1, 13]: 3.21 nM
IC50 [1, 14]: 6 nM
IC50 [1, 15]: 2.73 nM
IC50 [1, 16]: 9 nM
IC50 [1, 17]: 4 nM
IC50 [1, 18]: 2.78 nM
IC50 [1, 19]: 3.26 nM
IC50 [1, 20]: 61 nM
IC50 [1, 21]: 8 nM
IC50 [1, 22]: 66 nM
IC50 [1, 23]: 5 nM
IC50 [1, 24]: 2.48 nM
IC50 [1, 25]: 2.85 nM
IC50 [1, 26]: 3.19 nM
IC50 [1, 27]: 5 nM
IC50 [1, 28]: 10 nM
IC50 [1, 29]: 3.53 nM
IC50 [1, 30]: 1.54 nM
IC50 [1, 31]: 8.43 nM
IC50 [1, 32]: 4.29 nM
IC50 [1, 33]: 35 nM
IC50 [1, 34]: 3.58 nM
IC50 [1, 35]: 2.24 nM
IC50 [1, 36]: 183 nM
IC50 [1, 37]: 2.3 nM
IC50 [1, 38]: 4.22 nM
IC50 [1, 39]: 7 nM
IC50 [1, 40]: 4.73 nM
IC50 [1, 41]: 22 nM
IC50 [1, 42]: 4.4 nM
IC50 [1, 43]: 28 nM
IC50 [1, 44]: 1.67 nM
IC50 [1, 45]: < 1 nM
IC50 [1, 46]: < 1 nM
Structure (SMILES): CC[C@]1(O)C[C@H]2CN(CCc3c([nH]c4ccccc34)[C@@](C(=O)OC)(c3cc4c(cc3OC)N(C=O)[C@H]3[C@@](O)(C(=O)OC)[C@H](OC(C)=O)[C@]5(CC)C=CCN6CC[C@]43[C@@H]65)C2)C1 [vincristine]
